The subject of data set [1] is SMN2 exon 7 splicing. Put plainly: Cell-based SMN2 splicing assay in 293T cells (minigene). Set-up: species or system human. Conditions: for EC50: Homo sapiens, HEK-293T; for splicing modulation in cells: cellular SMN2 splicing assays.
Data set [2] deals with COVID RNA (SARS-CoV-2 RNA SL5 per FIG. 8). In words: FP binding, Kd for COVID RNA.
The target of data set [3] is DNA Seq6 (UGAAGGAAGGU as deoxyribonucleotides). Put plainly: FP binding assay, DNA Seq6. Conditions: footnote c: FP assay for DNA Seq6; range = 95% CI; read-out: Kd. The procedure:
All synthetic DNA and RNA oligomers were purchased from Integrated DNA Technologies and reconstituted in nuclease-free water (Invitrogen #AM9932) at 1 mM. The concentration of the oligonucleotides at ˜0.1 mM was calibrated with the A260 value measured by a NanoDrop ND-1000 (Thermo, Waltham, MA, USA) and the predicted extinction coefficient (http://www.oligoevaluator.com) using Lamber-Beer's Law. The risdiplam analogues (1 mM in DMSO) were diluted in 2× assay buffer (40 mM HEPES, 200 mM NaCl for RNA; 40 mM HEPES, 200 mM NaCl, 1 mM MgCl2 for DNA) to make a 1 μM 2× working solution.
A 1:2 dilution series (8 points) of each oligonucleotide was prepared in 20-30 μL water to desired concentrations (i.e., 1-128 μM). 20-30 μL 2× working solution containing the 2× assay buffer and the small-molecule ligand was added to each oligonucleotide sample in 1:1 (v/v) and mixed by pipetting for 4 times. For fluorescence polarization measurement, 20 μL of the above 1× working solution was transferred into a 384-well, black, F-bottom microplates (Greiner Bio-One) in duplicates or triplicates. The plate was equilibrated at room temperature for 5 min before being read using a microplate reader (SYNERGY H1, BioTek; Excitation/Emission=360/460 nm) at 25° C. For compound SMN-C5, a competitive binding assay was employed to measure an apparent Kd. SMN-C5 was 1:2 serial diluted for 10 concentration points starting at 750 μM in DMSO. A mixture of SMN-C2 (0.5 μM) and DNA Seq6 (25 μM) in 1× assay buffer was prepared and incubated at room temperature for 10 minutes. 3 μL of SMN-C5 solution at each concentration was added to a 42 μL SMN-C2/DNA Seq6 mixture and incubated at room temperature for 10 minutes. The mixture was then transferred into a microplate (20 μL each well) in duplicates for fluorescence polarization readout. The experimental data were analyzed using Prism 8 software (Graphpad Software, San Diego, CA, USA).

Data set [4] can be described thus: in vitro. Particulars: human.
Data set [5] is described as follows: in vitro. Conditions: human. This is another data set of the same source.
The nature of data set [6]: in vitro. Conditions: human. The source holds these as a separate data set.
Setting [7] is: Table 3, read-out: SMN2 Splicing EC50.
The mark [8] stands for this setting: cell-based SMN2 splicing assay in 293T cells, read-out: SMN2 EC50.

Read-outs that look alike come from different tables or passages of the source.

For the compound `CCOC(=O)C1=C(Nc2ccccc2)S/C(=C\c2ccc(OCCOCCn3cc(COCCOCCOCCOCCN4CCN(c5ccc6cc(-c7cn8cc(C)nc(C)c8n7)c(=O)oc6c5)CC4C)nn3)c(O)c2)C1=O` (stereo in doubt) [Compound C9, (S,Z)-ethyl 5-(4-(2-(2-(4-(13-(4-(3-(6,8-dimethylimidazo[1,2-a]pyrazin-2-yl)-2-oxo-2H-chromen-7-yl)-2-methylpiperazin-1-yl)-2,5,8,11-tetraoxatridecyl)-1H-1,2,3-triazol-1-yl)ethoxy)ethoxy)-3-hydroxybenzylidene)-4-oxo-2-(phenylamino)-4,5-dihydrothiophene-3-carboxylate], in data set [1] (setting [7]), the EC50 (commonly the concentration giving half of the maximal effect) was > 8 µM.
On to `Cc1cn2cc(-c3c(OCCNC(=O)OC(C)(C)C)c4ccc(N5CCN[C@@H](C)C5)cc4oc3=O)nc2c(C)n1` [Compound C7], for which, in data set [1] (setting [7]), the EC50 was > 8 µM.
Still for that read-out and setting: for `CC(=O)N1CCN(c2ccc3cc(-c4cn5cc(C)nc(C)c5n4)c(=O)oc3c2)C[C@@H]1C` [Compound C8, (S)-7-(4-acetyl-3-methylpiperazin-1-yl)-3-(6,8-dimethylimidazo[1,2-a]pyrazin-2-yl)-2H-chromen-2-one] the value was > 8 µM.
For `Cc1cn2cc(-c3cc4ccc(N5CCN(CCOCCN=[N+]=[N-])[C@@H](C)C5)cc4oc3=O)nc2c(C)n1` [Compound C12, (S)-7-(4-(2-(2-azidoethoxy)ethyl)-3-methylpiperazin-1-yl)-3-(6,8-dimethylimidazo[1,2-a]pyrazin-2-yl)-2H-chromen-2-one], the EC50 in data set [1] (setting [7]) was determined as 0.18 ± 0.04 µM. Further, the Kd in data set [2] (Table 3) and in data set [2] (Table 4) was 2600 ± 800 nM throughout.
Take `Cc1cn2cc(-c3c(Br)c4ccc(N5CCN[C@@H](C)C5)cc4oc3=O)nc2c(C)n1` [Compound C13, (S)-4-bromo-3-(6,8-dimethylimidazo[1,2-a]pyrazin-2-yl)-7-(3-methylpiperazin-1-yl)-2H-chromen-2-one]: the EC50 in data set [1] (setting [7]) amounted to 0.45 ± 0.18 µM.
With `CN1CCN(c2ccc3cc(-c4ccccc4Cl)c(=O)oc3c2)CC1` [Compound C18, 3-(2-chlorophenyl)-7-(4-methylpiperazin-1-yl)-2H-chromen-2-one], in data set [3], the Kd – broadly, the free concentration of one partner at which half of the binding sites on the other are occupied at equilibrium, for simple one-to-one binding – is > 100 µM. The EC50 in data set [1] (setting [7]) and in data set [1] (setting [8]) was > 8 µM throughout.
As to `CN1CCN(c2ccc3cc(-c4cccc(Cl)c4)c(=O)oc3c2)CC1` [Compound C19, 3-(3-chlorophenyl)-7-(4-methylpiperazin-1-yl)-2H-chromen-2-one], the Kd in data set [3] was determined as 13.9 ± 1.1 µM. The EC50 in data set [1] (setting [7]) and in data set [1] (setting [8]) was > 8 µM in each case. The CC50 in data set [4], in data set [5] and in data set [6] was > 30 µM each time.
For `CN1CCN(c2ccc3cc(-c4ccc(Cl)cc4)c(=O)oc3c2)CC1` [Compound C20, 3-(4-chlorophenyl)-7-(4-methylpiperazin-1-yl)-2H-chromen-2-one], the Kd in data set [3] amounted to 8.2 ± 0.7 µM. Besides, the EC50 in data set [1] (setting [7]) and in data set [1] (setting [8]) was > 8 µM each time. The “splicing modulation in cells” value in data set [1] is “without showing any observable splicing modulation”.
Consider `Cc1c(-c2ccccc2Cl)c(=O)oc2cc(N3CCN(C)CC3)ccc12` [Compound C21, 3-(2-chlorophenyl)-4-methyl-7-(4-methylpiperazin-1-yl)-2H-chromen-2-one], for which, in data set [1] (setting [7]), the EC50 is > 8 µM.
As for `Cc1c(-c2cccc(Cl)c2)c(=O)oc2cc(N3CCN(C)CC3)ccc12` [Compound C22, 3-(3-chlorophenyl)-4-methyl-7-(4-methylpiperazin-1-yl)-2H-chromen-2-one], in data set [3], the Kd is > 100 µM. For the same compound, the EC50 in data set [1] (setting [7]) and in data set [1] (setting [8]) was > 8 µM in each case. The CC50 in data set [4], in data set [5] and in data set [6] was > 30 µM each time.
For `Cc1c(-c2ccc(Cl)cc2)c(=O)oc2cc(N3CCN(C)CC3)ccc12` [Compound C23, 3-(4-chlorophenyl)-4-methyl-7-(4-methylpiperazin-1-yl)-2H-chromen-2-one], the Kd in data set [3] is > 100 µM. For the same compound, the EC50 in data set [1] (setting [7]) and in data set [1] (setting [8]) was > 8 µM throughout.
Regarding `CN1CCN(c2cc(F)c3cc(-c4ccccc4Cl)c(=O)oc3c2)CC1` [Compound C24, 3-(2-chlorophenyl)-5-fluoro-7-(4-methylpiperazin-1-yl)-2H-chromen-2-one], the EC50 in data set [1] (setting [7]) is > 8 µM.
Regarding `CN1CCN(c2cc(F)c3cc(-c4cccc(Cl)c4)c(=O)oc3c2)CC1` [Compound C25, 3-(3-chlorophenyl)-5-fluoro-7-(4-methylpiperazin-1-yl)-2H-chromen-2-one], in data set [3], the Kd is 18.7 ± 4 µM. Also, the 50% effective concentration (EC50) in data set [1] (setting [7]) and in data set [1] (setting [8]) was > 8 µM throughout.
Turning to `CN1CCN(c2cc(F)c3cc(-c4ccc(Cl)cc4)c(=O)oc3c2)CC1` [Compound C26, 3-(4-chlorophenyl)-5-fluoro-7-(4-methylpiperazin-1-yl)-2H-chromen-2-one], the Kd in data set [3] stood at 9.9 ± 0.9 µM. The EC50 in data set [1] (setting [7]) and in data set [1] (setting [8]) was > 8 µM in each case. Besides, the CC50 in data set [4], in data set [5] and in data set [6] was > 30 µM throughout.
As to `COc1cn2cc(-c3cc4ccc(N5CCNCC5)cc4oc3=O)nc2cn1` [Compound C28, 3-(6-methoxyimidazo[1,2-a]pyrazin-2-yl)-7-(piperazin-1-yl)-2H-chromen-2-one], the dissociation constant (Kd) in data set [3] was 1.4 ± 0.2 µM; in data set [2] (Table 3), 470 ± 80 nM; in data set [2] (Table 4) it was 470 ± 800 nM. The EC50 in data set [1] (setting [7]) and in data set [1] (setting [8]) was > 8 µM in each case. For the same compound, the “splicing modulation in cells” value in data set [1] is given as “without showing any observable splicing modulation”.
As to `O=c1oc2cc(N3CCNCC3)ccc2cc1-c1cn2ccccc2n1` [Compound C29, 3-(imidazo[1,2-a]pyridin-2-yl)-7-(piperazin-1-yl)-2H-chromen-2-one], the Kd was 2.8 ± 0.5 µM in data set [3], 460 ± 80 nM in data set [2] (Table 3) and 460 ± 800 nM in data set [2] (Table 4). Besides, the EC50 in data set [1] (setting [7]) and in data set [1] (setting [8]) was > 8 µM each time. For the same compound, in data set [1], the “splicing modulation in cells” value is recorded as “without showing any observable splicing modulation”. For the same compound, the CC50 in data set [6] worked out at 5.4 µM.
`O=c1oc2cc(N3CCNCC3)ccc2cc1-c1cn2cc(F)ccc2n1` [Compound C31, 3-(6-fluoroimidazo[1,2-a]pyridin-2-yl)-7-(piperazin-1-yl)-2H-chromen-2-one]: the Kd in data set [2] (Table 3) and in data set [2] (Table 4) was 680 ± 100 nM throughout. In data set [6], this compound displayed a CC50 of 4.7 µM.
For `O=c1oc2cc(N3CCNCC3)ccc2cc1-c1cn2ccc(Cl)cc2n1` [Compound C32, 3-(7-chloroimidazo[1,2-a]pyridin-2-yl)-7-(piperazin-1-yl)-2H-chromen-2-one], the EC50 in data set [1] (setting [7]) is > 8 µM. Moreover, the Kd in data set [2] (Table 3) worked out at 400 ± 40 nM; in data set [2] (Table 4), 400 ± 400 nM.
Turning to `O=c1oc2cc(N3CCNCC3)ccc2cc1-c1cn2cc(Cl)ccc2n1` [Compound C33, 3-(6-chloroimidazo[1,2-a]pyridin-2-yl)-7-(piperazin-1-yl)-2H-chromen-2-one], the CC50 in data set [6] was found to be 11.6 µM.
Same read-out and setting: next, `COc1ccn2cc(-c3cc4ccc(N5CCNCC5)cc4oc3=O)nc2c1` [Compound C34, 3-(7-methoxyimidazo[1,2-a]pyridin-2-yl)-7-(piperazin-1-yl)-2H-chromen-2-one]: 3.6 µM.
The same measure, in the same setting: next, `COc1ccc2nc(-c3cc4ccc(N5CCNCC5)cc4oc3=O)cn2c1` [Compound C35, 3-(6-methoxyimidazo[1,2-a]pyridin-2-yl)-7-(piperazin-1-yl)-2H-chromen-2-one]: 3 µM.
Turning to `O=c1oc2cc(N3CCNCC3)ccc2cc1-c1cn2ccc(C(F)(F)F)cc2n1` [Compound C36, 7-(piperazin-1-yl)-3-(7-(trifluoromethyl)imidazo[1,2-a]pyridin-2-yl)-2H-chromen-2-one], the Kd is 1400 ± 400 nM in data set [2] (Table 3) and 1390 ± 400 nM in data set [2] (Table 4).
`O=c1oc2cc(N3CCNCC3)ccc2cc1-c1cn2cc(C(F)(F)F)ccc2n1` [Compound C37, 7-(piperazin-1-yl)-3-(6-(trifluoromethyl)imidazo[1,2-a]pyridin-2-yl)-2H-chromen-2-one] came in with a CC50 in data set [6] of 14.1 µM.
Regarding `O=c1oc2cc(N3CCNCC3)ccc2cc1-c1ccc2ncccc2c1` [Compound C38], the EC50 in data set [1] (setting [7]) is > 8 µM. For the same compound, in data set [6], the CC50 is 1.8 µM.
Regarding `O=c1oc2cc(N3CCNCC3)ccc2cc1-c1ccc2ccccc2c1` [Compound C39], the EC50 in data set [1] (setting [7]) was > 8 µM. The CC50 in data set [6] was 7.9 µM.
